pIC50: −log10 of the molar value.
target: PDE-5 (UniProt O76074); assay: In vitro PDE inhibitory activity against PDE5 (batch method or scintillation proximity assay); format: biochemical, human; settings: representative compounds
Source text: The compounds of the invention are inhibitors of cyclic guanylate monophosphate (cGMP)-specific phosphodiesterase type 5 (PDE-5 inhibitors).
The required PDE enzymes can be isolated from a variety of sources, including human corpus cavernosum, human and rabbit platelets, human cardiac ventricle, human skeletal muscle and bovine retina, essentially by a modification of the method of Thompson, W J et al.; Biochemistry 18(23), 5228-5237, 1979, as described by Ballard S A et al.; J. Urology 159(6), 2164-2171, 1998. In particular, cGMP-specific PDE5 and cGMP-inhibited cAMP PDE3 can be obtained from human corpus cavernosum tissue, human platelets or rabbit platelets; cGMP-stimulated PDE2 was obtained from human corpus cavernosum; calcium/calmodulin (Ca/CAM)-dependent PDE1 from human cardiac ventricle; cAMP-specific PDE4 from human skeletal muscle; and photoreceptor PDE6 from bovine retina. Phosphodiesterases 7-11 can be generated from full length human recombinant clones transfected into SF9 cells.
Assays can be performed either using a modification of the “batch”method of Thompson W J and Appleman M M; Biochemistry 10(2), 311-316, 1971, essentially as described by Ballard S A et al.; J. Urology 159(6), 2164-2171, 1998, or using a scintillation proximity assay for the direct detection of [^3H]-labelled AMP/GMP using a modification of the protocol described by Amersham plc under product code TRKQ7090/7100. In summary, for the scintillation proximity assay the effect of PDE inhibitors was investigated by assaying a fixed amount of enzyme in the presence of varying inhibitor concentrations and low substrate, (cGMP or cAMP in a 3:1 ratio unlabelled to [^3H]-labeled at a concentration of ˜⅓ Km, or less) such that IC50≅Ki. The final assay volume was made up to 100 μl with assay buffer [20 mM Tris-HCl pH 7.4, 5 mM MgCl2, 1 mg/ml bovine serum albumin]. Reactions were initiated with enzyme, incubated for 30-60 min at 30° C. to give <30% substrate turnover and terminated with 50 μl yttrium silicate SPA beads (containing 3 mM of the respective unlabelled cyclic nucleotide for PDEs 9 and 11).

Structure (SMILES)	pIC50
COC(C)CCn1nc(C(=O)O)c2nc(N(C)C(C)C)nc(Nc3cc(C)ccn3)c21 (centres unmarked) [Example 107]	9.51
CCOCCn1nc(C(=O)O)c2nc(N(C)C)nc(NC3CC3)c21 [Example 35]	7.00
CCN(C)c1nc(Nc2cc(C)ccn2)c2c(n1)c(C(=O)O)nn2CC1CCCCO1 (centres unmarked) [Example 60]	8.10
Cc1ccnc(Nc2nc(N(C)C)nc3c(C(=O)O)nn(CC4CCCCO4)c23)c1 (centres unmarked) [Example 59]	7.36
CCOCCn1nc(C(=O)O)c2nc(N(C)C3CCC3)nc(N[C@@H]3CCOC3)c21 [Example 69]	7.00
CCOCCn1nc(C(=O)O)c2nc(N(C)C(C)C)nc(N[C@@H]3CCOC3)c21 [Example 67]	7.00

same assay, conditions: representative compounds, read-out: IC50

Structure (SMILES)	pIC50
CCN(C)c1nc(Nc2cc(C)ccn2)c2c(n1)c(C(=O)O)nn2C[C@@H](C)OC [Example 65]	7.60
Cc1ccnc(Nc2nc(N(C)C(C)C)nc3c(C(=O)NS(C)(=O)=O)nn(CCOCC(F)(F)F)c23)c1 [Example 179, 5-[Isopropyl(methyl)amino]-7-[(4-methylpyridin-2-yl)amino]-N-(methylsulfonyl)-1-[2-(2,2,2-trifluoroethoxy)ethyl]-1H-pyrazolo[4,3-d]pyrimidine-3-carboxamide]	9.04
CCOCCn1nc(C(=O)OC)c2nc(N(CC)CC)nc(Nc3ccc(F)c(C)c3)c21 [Example 117, Methyl 5-(diethylamino)-1-(2-ethoxyethyl)-7-[(4-fluoro-3-methylphenyl)amino]-1H-pyrazolo[4,3-d]pyrimidine-3-carboxylate]	10.60
CCOCCn1nc(C(=O)O)c2nc(N(C)C(C)C)nc(Nc3cccc(C)c3)c21 [Example 94]	9.52
CCOCCn1nc(C(=O)O)c2nc(N(C)C)nc(Nc3cc(C)ccn3)c21 [Example 14]	8.06
CCOCCn1nc(-c2nc(=O)o[nH]2)c2nc(N(C)CC)nc(Nc3cc(C)ccn3)c21 [Example 76]	9.33
Cc1ccnc(Nc2nc(N(C)C)nc3c(C(=O)O)nn(CCOC(C)C)c23)c1 [Example 61]	7.88
CCOCCn1nc(C(=O)O)c2nc(N(C)C(C)C)nc(Nc3cccc(F)c3)c21 [Example 88]	7.67
CCOCCn1nc(C(=O)O)c2nc(N(C)CC)nc(Nc3ccc(F)c(C)c3)c21 [Example 87]	10.06
CCOCCn1nc(C(=O)O)c2nc(N(CC)CC)nc(Nc3cc(C)ccn3)c21 [Example 11]	8.96
CCOCCn1nc(C(=O)OC)c2nc(N(C)C(C)C)nc(Nc3cccc(C)n3)c21 [Example 6, Methyl 1-(2-ethoxyethyl)-5-(N-isopropyl-N-methylamino)-7-(6-methylpyridin-2-ylamino) -1H-pyrazolo[4,3-d]pyrimidine-3-carboxylate]	8.54
CCOCCn1nc(C(=O)O)c2nc(N(C)C(C)C)nc(Nc3cc(CC)ccn3)c21 [Example 36]	9.15
CCOCCn1nc(C(=O)OCC)c2nc(N3CCN[C@H](C)C3)nc(Nc3cc(C)ccn3)c21 [Example 8]	8.42
CCOCCn1nc(C(=O)O)c2nc(N(C)C3CCCC3)nc(Nc3cc(C)ccn3)c21 [Example 18]	7.95
CCOCCn1nc(C(=O)OCC)c2nc(N(C)C(C)C)nc(Nc3cc(C)ccn3)c21 [Example 9]	10.12
CO[C@H](C)Cn1nc(C(=O)O)c2nc(N(C)C)nc(Nc3cc(C)ccn3)c21 [Example 64]	7.00
CCN(C)c1nc(Nc2cc(C)ccn2)c2c(n1)c(C(=O)NS(C)(=O)=O)nn2CCO [Example 185, 5-[Ethyl(methyl)amino]-1-(2-hydroxyethyl)-7-[(4-methylpyridin-2-yl)amino]-N-(methylsulfonyl)-1H-pyrazolo[4,3-d]pyrimidine-3-carboxamide]	7.94
CO[C@H](C)Cn1nc(C(=O)O)c2nc(N(C)C(C)C)nc(Nc3cc(C)ccn3)c21 [Example 112, (2′R)-5-(N-Isopropyl-N-methylamino)-1-(2′-methoxypropyl)-7-(4-methylpyridin-2-ylamino)-1H-pyrazolo[4,3-d]pyrimidine-3-carboxylic acid]	7.83
CCOCCn1nc(C(=O)O)c2nc(N(CC)CC)nc(Nc3ccc(=O)n(C)c3)c21 [Example 125, 5-(Diethylamino)-1-(2-ethoxyethyl)-7-[(1-methyl-6-oxo-1,6-dihydropyridin-3-yl)amino]-1H-pyrazolo[4,3-]pyrimidine-3-carboxylic acid]	8.82
CCOCCn1nc(C(=O)O)c2nc(N(C)C(C)C)nc(Nc3ccc(F)c(C)c3)c21 [Example 85]	10.26
CCCOCCn1nc(C(=O)O)c2nc(N(C)C(C)C)nc(Nc3cc(C)ccn3)c21 [Example 19]	8.61
CCCOCCn1nc(C(=O)NS(C)(=O)=O)c2nc(N(CC)CC)nc(Nc3cc(C)ccn3)c21 [Example 183, 5-(Diethylamino)-7-[(4-methylpyridin-2-yl)amino]-N-(methylsulfonyl)-1-(2-propoxyethyl)-1H-pyrazolo[4,3-d]pyrimidine-3-carboxamide]	9.42
CCOCCn1nc(C(=O)O)c2nc(N(C)CC)nc(Nc3ccc(C)c(C)c3)c21 [Example 103]	7.67
CCOCCn1nc(C(=O)O)c2nc(N(C)CC(C)C)nc(Nc3cc(C)ccn3)c21 [Example 16]	9.29
CCOCCn1nc(C(=O)O)c2nc(N3CCCC3C)nc(Nc3cc(C)ccn3)c21 (centres unmarked) [Example 53]	9.10

Structure (SMILES)	pIC50
CCOCCn1nc(C(=O)O)c2nc(N(C)C(C)C)nc(Nc3ccccc3F)c21 [Example 104]	8.01
CCOCCn1nc(C(=O)O)c2nc(N(C)C(C)C)nc(Nc3cc(F)cc(F)c3)c21 [Example 91]	8.30
Cc1ccnc(Nc2nc(N(C)C(C)C)nc3c(C(=O)O)nn(CCOCC4CC4)c23)c1 [Example 108]	7.74
CCOCCn1nc(C(=O)OC)c2nc(N3CCN[C@H](C)C3)nc(Nc3cc(C)ccn3)c21 [Example 3]	8.30
CCN(C)c1nc(Nc2cc(C)ccn2)c2c(n1)c(C(=O)O)nn2CCOCC(F)(F)F [Example 127, 5-[Ethyl(methyl)amino]-7-[(4-methylpyridin-2-yl)amino]-1-[2-(2,2,2-trifluoroethoxy)ethyl]-1H-pyrazolo[4,3-d]pyrimidine-3-carboxylic acid]	8.20
CCOCCn1nc(C(=O)O)c2nc(N(C)CC)nc(Nc3cc(C)nc(C)n3)c21 [Example 74]	7.00
CCOCCn1nc(C(=O)O)c2nc(N(C)C)nc(Nc3ccc(C)c(C)c3)c21 [Example 102]	7.42
COCCn1nc(C(=O)O)c2nc(N(C)C(C)C)nc(Nc3cc(C)ccn3)c21 [Example 22]	8.15
Cc1ccnc(Nc2nc(N(C)C(C)C)nc3c(C(=O)NS(C)(=O)=O)nn(CCOCCCF)c23)c1 [Example 176]	9.77
CCOCCn1nc(C(=O)O)c2nc(N(C)C(C)CC)nc(Nc3cc(C)ccn3)c21 (centres unmarked) [Example 50]	8.78
CCOCCn1nc(C(=O)O)c2nc(N(C)C(C)C)nc(Nc3ccc(F)cn3)c21 [Example 81, 1-(2-Ethoxyethyl)-7-(5-fluoropyridin-2-ylamino)-5-(N-isopropyl-N-methylamino)-1H-pyrazolo[4,3-d]pyrimidine-3-carboxylic acid]	7.78
CCOCCn1nc(C(=O)O)c2nc(N(C)C(C)C)nc(Nc3cccc(OC)n3)c21 [Example 84]	8.63
CCOCCn1nc(C(=O)OC)c2nc(N(C)C)nc(Nc3cc(C)ccn3)c21 [Example 5]	9.03
CCOCCn1nc(C(=O)O)c2nc(N(C)C)nc(NC3CCOCC3)c21 [Example 82]	7.26
CCN(C)c1nc(Nc2cc(C)ccn2)c2c(n1)c(C(=O)O)nn2CCOCC1CC1 [Example 109]	8.01
CCOCCn1nc(C(=O)O)c2nc(N(C)C)nc(Nc3cc(C)ccc3F)c21 [Example 100]	8.46
CCOCCn1nc(C(=O)O)c2nc(N(C)C3CCC3)nc(Nc3cc(C)ccn3)c21 [Example 51]	8.59
CCOCCn1nc(C(=O)O)c2nc(N(C)CC)nc(Nc3ccnc(OC)n3)c21 [Example 70]	9.35
CCOCCn1nc(C(=O)O)c2nc(N3CC[C@H](OC)C3)nc(Nc3cc(C)ccn3)c21 [Example 12]	7.83
CCN(CC)c1nc(Nc2cc(C)ccn2)c2c(n1)c(C(=O)NS(C)(=O)=O)nn2CCOCCCF [Example 177]	9.77
CCN(C)c1nc(Nc2cc(C)ccn2)c2c(n1)c(C(=O)O)nn2CCOC [Example 119]	7.94
CCOCCn1nc(-c2nc(=O)o[nH]2)c2nc(N(CC)CC)nc(Nc3ccc(F)c(C)c3)c21 [Example 78]	9.62
CCOCCn1nc(C(=O)O)c2nc(N(C)C)nc(Nc3ccnc(OC)n3)c21 [Example 71]	8.61
CCOCCn1nc(-c2nnn[nH]2)c2nc(N(C)C)nc(Nc3cc(C)ccn3)c21 [Example 80]	8.54
CCOCCn1nc(C(=O)O)c2nc(N(C)C(C)C)nc(Nc3cc(F)ccc3F)c21 [Example 92]	7.39
